Results reported in US9173396B2, “Heterocyclic compounds as pesticides” (BAYER INTELLECTUAL PROPERTY GMBH, priority 2010, dated 2015).
Read-outs that look alike come from different tables or passages of the source.

What was measured:
[1] = tested on: green peach aphid (Myzus persicae); experiment: Myzus test (spray treatment); assay type: in vivo; conditions: foliar, 144 h, application rate of 500 g/ha, after 6 days, Chinese cabbage leaf discs, 100% = all aphids killed, read-out: effect in %
Method: Myzus Test (Spray Treatment)
• Solvents: 78 parts by weight of acetone • 1.5 parts by weight of dimethylformamide • Emulsifier: 0.5 part by weight of alkylaryl polyglycol ether
(§1) To produce a suitable preparation of active compound, 1 part by weight of active compound is mixed with the stated amounts of solvent and emulsifier, and the concentrate is diluted with emulsifier-containing water to the desired concentration. Discs of Chinese cabbage (Brassica pekinensis) infected by all stages of the green peach aphid (Myzus persicae) are sprayed with an active compound preparation of the desired concentration.
After 6 days, the effect in % is determined. 100% means that all of the aphids have been killed; 0% means that none of the aphids have been killed.

[2] = tested on: greenhouse red spider mite (Tetranychus urticae); experiment: Tetranychus test (OP-resistant/spray treatment); assay type: in vivo; conditions: application rate of 500 g/ha; after 6 days; bean leaf discs; 100% = all spider mites killed
Method: Tetranychus Test (OP-Resistant/Spray Treatment)
• Solvents: 78.0 parts by weight of acetone • 1.5 parts by weight of dimethylformamide • Emulsifier: 0.5 part by weight of alkylaryl polyglycol ether
as §1, with “bean leaves (Phaseolus vulgaris) which are infested” for “Chinese cabbage (Brassica pekinensis) infected”, “greenhouse red spider mite (Tetranychus urticae)” for “green peach aphid (Myzus persicae)”
After 6 days, the effect in % is determined. 100% means that all of the spider mites have been killed; 0% means that none of the spider mites have been killed.

[3] = HCOOH (formic acid), log P (HCOOH), HPLC-MS, HCOOH
[4] = HCOOH (formic acid), logP, HCOOH, Table 1
[5] = log P, HPLC-MS, eluent not stated

| Compound | chromatographic logP (log P by HPLC-MS; [4]) | pest or weed control at 500 g/ha [1] [%] | chromatographic logP (log P by HPLC-MS; [5]) | also measured |
| --- | --- | --- | --- | --- |
| Cn1nc(-c2cccc(-c3ncccn3)n2)cc1-c1cccnc1 [Compound 2, 2-{6-[1-Methyl-5-(pyridin-3-yl)-1H-pyrazol-3-yl]pyridin-2-yl}pyrimidine] | 1.26 | 100 |  | chromatographic logP (log P by HPLC-MS; [3]): 1.26 |
| CC(C)c1nn(-c2cccnc2)c(=O)n1N [4-Amino-5-isopropyl-2-(pyridin-3-yl)-2,4-dihydro-3H-1,2,4-triazol-3-one] |  |  | 0.85 |  |
| c1cnc(-c2cccc(-n3cnc(-c4cccnc4)c3)n2)nc1 [Compound 3, 2-{6-[4-(Pyridin-3-yl)-1H-imidazol-1-yl]pyridin-2-yl}pyrimidine] | 0.73 | 100 |  | chromatographic logP (log P by HPLC-MS; [3]): 0.75 |
| c1cnc(-c2cccc(-c3cn(-c4cccnc4)nn3)n2)nc1 [Compound 10, 2-{6-[1-(Pyridin-3-yl)-1H-1,2,3-triazol-4-yl]pyridin-2-yl}pyrimidine] | 1.39 | 100 | 1.39 |  |
| CN(C)S(=O)(=O)NC(=O)c1cccc(-n2ccc(-c3cncc(F)c3)n2)n1 [Compound 22, 6-[3-(5-Fluoro-3-pyridinyl)-1H-pyrazol-1-yl]-N-[(dimethylamino)sulfonyl]-2-pyridinecarboxamide] |  |  |  | chromatographic logP (log P by HPLC-MS; HPLC-MS, log P, eluent not stated): 2.61; chromatographic logP (log P by HPLC-MS; HPLC-MS, logP, HCOOH, Table 2): 2.61 |
| CN(C)C=CC(=O)c1cncc(F)c1 (mixture of isomers) [(E/Z)-3-(Dimethylamino)-1-(5-fluoro-3-pyridinyl)-2-propen-1-one] |  |  | 0.91 |  |
| CC(C)c1nn(-c2cccnc2)c(=O)n1-c1cccc(-c2ncccn2)n1 [Compound 14, 5-Isopropyl-2-(pyridin-3-yl)-4-[6-(pyrimidin-2-yl)pyridin-2-yl]-2,4-dihydro-3H-1,2,4-triazol-3-one] | 1.77 |  | 1.77 |  |
| C#Cc1cccc(-c2ncccn2)n1 [2-(6-ethynylpyridin-2-yl)pyrimidine, 2-(6-Ethynylpyridin-2-yl)pyrimidine] |  |  | 1.05 |  |
| c1cnc(-c2cccc(-n3ccc(-c4cccnc4)n3)n2)nc1 [Compound 13, 2-{6-[3-(Pyridin-3-yl)-1H-pyrazol-1-yl]pyridin-2-yl}pyrimidine] | 1.2 |  | 1.2 |  |
| Fc1cncc(-c2cnc(-c3cccc(-c4ncccn4)n3)s2)c1 [Compound 21, 2-{6-[5-(5-Fluoropyridin-3-yl)-1,3-thiazol-2-yl]pyridin-2-yl}pyrimidine] |  | 90 | 2.13 | chromatographic logP (log P by HPLC-MS; HPLC-MS, logP, HCOOH, Table 2): 2.13 |
| O=C(O)c1cccc(-n2ccc(-c3cncc(F)c3)n2)n1 [6-[3-(5-Fluoro-3-pyridinyl)-1H-pyrazol-1-yl]-2-pyridinecarboxylate] |  |  | 1.81 |  |
| c1cnc(-c2cccc(-c3ncc(-c4cccnc4)s3)n2)nc1 [Compound 17, 2-{6-[5-(Pyridin-3-yl)-1,3-thiazol-2-yl]pyridin-2-yl}pyrimidine] | 1.79 | 100 | 1.79 |  |
| Cn1nc(-c2cccc(Br)n2)cc1-c1cccnc1 [2-Bromo-6-[1-methyl-5-(pyridin-3-yl)-1H-pyrazol-3-yl]pyridine] |  |  |  | chromatographic logP (log P by HPLC-MS; HCOOH (formic acid)): 1.94 |
| CC1(C)OB(c2coc(-c3cccnc3)c2)OC1(C)C [3-[4-(4,4,5,5-Tetramethyl-1,3,2-dioxaborolan-2-yl)-2-furyl]pyridine] |  |  | 2.25 |  |
| Fc1cncc(-c2cc[nH]n2)c1 [3-(5-fluoro-3-pyridinyl)-1H-pyrazole, 3-(5-Fluoro-3-pyridinyl)-1H-pyrazole] |  |  | 0.92 |  |
| c1cnc(-c2cccc(-c3nccs3)n2)nc1 [2-[6-(1,3-Thiazol-2-yl)pyridin-2-yl]pyrimidine] |  |  | 1.43 |  |
| CCc1nn(-c2cccnc2)c(=O)n1N [4-Amino-5-ethyl-2-(pyridin-3-yl)-2,4-dihydro-3H-1,2,4-triazol-3-one] |  |  | 0.32 |  |
| CC(C)c1nn(-c2cccnc2)c(=O)[nH]1 [5-Isopropyl-2-(pyridin-3-yl)-2,4-dihydro-3H-1,2,4-triazol-3-one] |  |  | 0.71 |  |
| FC(F)(F)c1cccc(-n2cnc(-c3cccnc3)n2)n1 [Compound 6, 2-[3-(Pyridin-3-yl)-1H-1,2,4-triazol-1-yl]-6-(trifluoromethyl)pyridine] | 2.11 | 100 | 2.11 |  |
| CCc1nn(-c2cccnc2)c(=O)n1-c1cccc(-c2ncccn2)n1 [Compound 15, 5-Ethyl-2-(pyridin-3-yl)-4-[6-(pyrimidin-2-yl)pyridin-2-yl]-2,4-dihydro-3H-1,2,4-triazol-3-one] | 1.48 |  |  |  |
| COC(=O)c1cccc(-n2ccc(-c3cncc(F)c3)n2)n1 [Methyl 6-[3-(5-fluoro-3-pyridinyl)-1H-pyrazol-1-yl]-2-pyridinecarboxylate] |  |  | 1.07 |  |
| c1cnc(-c2cccc(-c3coc(-c4cccnc4)c3)n2)nc1 [Compound 11, 2-{6-[5-(Pyridin-3-yl)-3-furyl]pyridin-2-yl}pyrimidine] | 1.26 |  | 1.26 |  |
| c1cnc(-c2cccc(-n3cc(-c4cccnc4)cn3)n2)nc1 [Compound 9, 2-{6-[4-(Pyridin-3-yl)-1H-pyrazol-1-yl]pyridin-2-yl}pyrimidine] | 1.04 | 100 | 1.04 |  |
| Cc1nn(-c2cccnc2)c(=O)[nH]1 [5-Methyl-2-(pyridin-3-yl)-2,4-dihydro-3H-1,2,4-triazol-3-one] |  |  | -0.21 |  |
| Cc1nn(-c2cccnc2)c(=O)n1-c1cccc(-c2ncccn2)n1 [Compound 16, 5-methyl-2-(pyridin-3-yl)-4-[6-(pyrimidin-2-yl)pyridin-2-yl]-2,4-dihydro-3H-1,2,4-triazol-3-one] | 1.17 |  |  |  |
| Brc1cccc(-c2cc(-c3cccnc3)no2)n1 [Compound 1, 2-Bromo-6-[3-(pyridin-3-yl)-1,2-oxazol-5-yl]pyridine] | 2.23 | 100 |  | chromatographic logP (log P by HPLC-MS; [3]): 2.23 |
| C[Si](C)(C)C#Cc1cccc(-c2ncccn2)n1 [2-{6-[(Trimethylsilyl)ethynyl]pyridin-2-yl}pyrimidine] |  |  |  | chromatographic logP (log P by HPLC-MS): 3.11 |
| CCc1nn(-c2cccnc2)c(=O)[nH]1 [5-Ethyl-2-(pyridin-3-yl)-2,4-dihydro-3H-1,2,4-triazol-3-one] |  |  | 0.3 |  |
| c1cnc(-c2cccc(-c3cnc(-c4cccnc4)o3)n2)nc1 [Compound 7, 2-{6-[2-(Pyridin-3-yl)-1,3-oxazol-5-yl]pyridin-2-yl}pyrimidine] | 1.39 | 100 | 1.39 | effect in % [2]: 100% |
